From patent US8853246B2 (Dow AgroSciences LLC, priority 2009, dated 2014)
Where two headings read alike, the source gives them in different places.

Tests used:
[1] = system: Green Peach Aphid (Myzus Persicae); experiment: Insecticidal test for green peach aphid in foliar spray assay (col. MYZUPE); assay type: in vivo; conditions: Myzus persicae, 72 h, read-out: MYZUPE 200 ppm (Corrected % Control, rating)
Summary of the method: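 Cabbage seedlings with 2-3 true leaves, infested with 20-50 wingless adult and nymph aphids one day earlier, sprayed to runoff at 200 ppm (acetone/methanol stock diluted in 0.025% Tween 20), four pots per treatment. After 3 days at ~25 °C, 40% RH, live aphids counted; corrected % control versus solvent-sprayed plants.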

[2] = system: Sweetpotato Whitefly-Crawler (Bemisia Tabaci); experiment: Insecticidal test for sweetpotato whitefly-crawler in foliar spray assay (col. BEMITA); assay type: in vivo; conditions: Bemisia tabaci, read-out: BEMITA 200 ppm (Corrected % Control, rating)
Summary of the method: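 Cotton plants (one 3-5 cm true leaf) infested with whitefly eggs (100-300/plant), held 5-6 days at 82° F, 50% RH until crawlers developed. Sprayed to runoff at 200 ppm (acetone stock diluted in 0.025% Tween 20), four plants per treatment. Live nymphs counted after 8-9 days; % control by Abbott's correction versus solvent check.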

SMILES | pest or weed control at 200 ppm ([1]; green peach aphid) | melting point | pest or weed control at 200 ppm ([2]; sweetpotato whitefly-crawler) | pest or weed control at 200 ppm ([1]; Abbott's correction formula) | pest or weed control at 200 ppm ([2]; Abbott's correction formula)
Cc1nc(-c2cccnc2)sc1NC(=O)C(C)C[S+](C)[O-] (stereo not drawn) [Compound 92] | 80 to 100% | 160 to 163 °C | < 80% |  | 
C=CC(=O)Nc1sc(-c2cncc(F)c2)nc1C#N [Compound 502] |  | 231 to 232 °C |  | < 80% | < 80%
Cc1nc(-c2cncc(F)c2)sc1NC(=O)CCS(C)(=O)=O [Compound 148] | 80 to 100% | 230 to 232 °C | < 80% |  | 
CSCC(C)(C)C(=O)N(C)c1cnc(-c2cccnc2)s1 [Compound 29] | 80 to 100% | 92 to 94 °C | 80 to 100% |  | 
CCN(C(=O)c1sc(C)nc1C(F)(F)F)c1sc(-c2cccnc2)nc1Cl [Compound 548] |  | 102 to 103 °C |  | 80 to 100% | 80 to 100%
CCCC(C)OC(=O)Nc1sc(-c2cccnc2)nc1C (stereo not drawn) [Compound 376] | 80 to 100% | 88 to 94 °C | 80 to 100% |  | 
CSCC(C)C(=O)Nc1sc(-c2ccc(Cl)nc2)nc1C (stereo not drawn) [Compound 169] | < 80% | 142 to 146 °C | 80 to 100% |  | 
CN(C(=O)CC[S+](C)[O-])c1sc(-c2cncc(F)c2)nc1F (stereo not drawn) [Compound 392] | 80 to 100% | 113 to 116 °C | 80 to 100% |  | 
CC(C[S+](C)[O-])C(=O)Nc1sc(-c2cncc(F)c2)nc1Br (stereo not drawn) [Compound 306] | 80 to 100% | 172 to 175 °C | < 80% |  | 
COc1ncc(-c2nc(Cl)c(N(C)C(=O)CC[S+](C)[O-])s2)cc1F (stereo not drawn) [Compound 558] |  | 132 to 135 °C |  | < 80% | < 80%
CCc1cc(C(=O)N(C)c2sc(-c3cccnc3)nc2Cl)no1 [Compound 383] | < 80% | 121 to 124 °C | 80 to 100% |  | 
CCN(C(=O)C1(C)CC1(Cl)Cl)c1sc(-c2cccnc2)nc1Cl (stereo not drawn) [Compound 536] |  | 144 to 146 °C |  | < 80% | < 80%
CSCC(=O)N(C)c1sc(-c2cccnc2)nc1Cl [Compound 369] | 80 to 100% | 111 to 114 °C | 80 to 100% |  | 
CSCC(C)(C)C(=O)N(C)c1sc(-c2cccnc2)nc1Cl [Compound 264] | 80 to 100% | 103 to 106 °C | 80 to 100% |  | 
CC(=O)N(C)c1sc(-c2cccnc2)nc1C [Compound 193] | 80 to 100% | 127 to 130 °C | 80 to 100% |  | 
CSC(C)C(=O)N(C)c1sc(-c2cccnc2)nc1Cl (stereo not drawn) [Compound 361] | 80 to 100% | 97 to 104 °C | < 80% |  | 
CC(C)(C)OC(=O)N(C(=O)OC(C)(C)C)c1cnc(-c2cncc(F)c2)s1 [Compound 277, di(tert-butyl)2-(5-fluoropyridin-3-yl)-1,3-thiazol-5-ylimidodicarbonate] | 80 to 100% | 94 to 96 °C | 80 to 100% |  | 
CCN(C(=O)c1cocn1)c1sc(-c2cccnc2)nc1Cl [Compound 570] |  | 118 to 120 °C |  | 80 to 100% | < 80%
Cc1nc(-c2cncc(F)c2)sc1NC(=O)C(C)C/S(C)=N\C#N (stereo not drawn) [Compound 163] | 80 to 100% | 75 to 81 °C | < 80% |  | 
CCOC(=O)c1nc(-c2cccnc2)sc1NC(=O)C(C)CSC (stereo not drawn) [Compound 395] | < 80% | 93 to 101 °C | < 80% |  | 

SMILES | pest or weed control at 200 ppm ([1]; green peach aphid) | melting point | pest or weed control at 200 ppm ([2]; sweetpotato whitefly-crawler) | pest or weed control at 200 ppm ([1]; Abbott's correction formula) | pest or weed control at 200 ppm ([2]; Abbott's correction formula)
Cc1nc(-c2cccnc2)sc1NC(=O)c1cnn(C)c1 [Compound 355] | 80 to 100% | 219 to 222 °C | < 80% |  | 
CSCCN(C(=O)OC(C)(C)C)c1sc(-c2cccnc2)nc1C [Compound 567] |  | 63 to 68 °C |  | 80 to 100% | < 80%
CS[C@H]1CC1C(=O)Nc1sc(-c2cncc(F)c2)nc1C (stereo partly drawn) [Compound 220] | 80 to 100% | 206 to 212 °C | 80 to 100% |  | 
COC(=O)CCC(=O)Nc1sc(-c2cccnc2)nc1C [Compound 197] | 80 to 100% | 151 to 153 °C | < 80% |  | 
Cc1nc(-c2cccnc2)sc1NC(=O)CCS(C)(=O)=O [Compound 100] | 80 to 100% | 222 to 224 °C | < 80% |  | 
Cc1cncc(-c2nc(C)c(NC(=O)OC(C)(C)C)s2)c1 [Compound 150] | 80 to 100% | 135 to 138 °C | < 80% |  | 
Cc1nc(-c2cncc(C#N)c2)sc1NC(=O)OC(C)(C)C [Compound 151] | < 80% | 171 to 174 °C | < 80% |  | 
CCCNC(=O)N(C)c1sc(-c2cccnc2)nc1C [Compound 391] | 80 to 100% | 150 to 151 °C | 80 to 100% |  | 
CCN(C(=O)c1cn(C)nc1C(F)(F)F)c1sc(-c2cccnc2)nc1Cl [Compound 547] |  | 110 to 111 °C |  | 80 to 100% | 80 to 100%
CSCC(C)C(=O)N(C)c1cnc(-c2cncc(F)c2)s1 (stereo not drawn) [Compound 31] | 80 to 100% | 75 to 77 °C | 80 to 100% |  | 
CN(C(=O)NCC[S+](C)[O-])c1cnc(-c2cncc(F)c2)s1 (stereo not drawn) [Compound 82] | 80 to 100% | 202 to 203 °C | < 80% |  | 
Cc1nc(-c2cncc(F)c2)sc1NC(=O)OC(C)(C)C [Compound 309] | < 80% | 160 to 161 °C | < 80% |  | 
CC(C)C(=O)N(C)c1cnc(-c2cccnc2)s1 [Compound 24] | 80 to 100% | 113 to 114 °C | 80 to 100% |  | 
CN(C(=O)OC(C)(C)C)c1sc(-c2cncc(F)c2)nc1Br [Compound 318] | 80 to 100% | 108 to 110 °C | < 80% |  | 
CC(C)(C)OC(=O)N(C(=O)OC(C)(C)C)c1sc(-c2cncc(F)c2)nc1Br [Compound 317] | 80 to 100% | 154 to 156 °C | < 80% |  | 
CN(C(=O)C(C)(C)C[S+](C)[O-])c1cnc(-c2cccnc2)s1 (stereo not drawn) [Compound 80] | 80 to 100% | 118 to 122 °C | 80 to 100% |  | 
COc1cncc(-c2nc(C)c(NC(=O)OC(C)(C)C)s2)c1 [Compound 175] | < 80% | 136 to 140 °C | < 80% |  | 
CSCC(C)C(=O)Nc1sc(-c2cncc(F)c2)nc1C (stereo not drawn) [Compound 141] | 80 to 100% | 110 to 113 °C | 80 to 100% |  | 
Cc1nc(-c2cccnc2)sc1NC(=O)c1cccc(SC(F)F)c1 [Compound 381] | < 80% | 158 to 159 °C | < 80% |  | 
CSCCC(=O)N(C)c1sc(-c2cncc(F)c2)nc1C#N [Compound 503] |  | 97 to 98 °C |  | < 80% | < 80%
